Literature values, collected in patent US12582620B2, “Oral solutions comprising lisdexamfetamine salts” (Adalvo Limited, priority 2019, dated 2026).

How the values were obtained:
[1] = acidic versus alkaline conditions
[2] = not given; remark: listed apart in the source

C[C@@H](Cc1ccccc1)NC(=O)[C@@H](N)CCCCN [Lisdexamfetamine dimesylate, (2S)-2,6-diamino-N-[(1S)-1-methyl-2-phenylethyl] hexanamide dimethanesulfonate]
Solubility in water: very soluble in water | Susceptibility to hydrolysis [1]: more hydrolysis-susceptible under alkaline conditions | Change of solubility ([2]; increasing the pH from 8 to 13): modest reductions | Solubility ([2]; physiologically relevant pH range (pH 1-8), saturated buffered aqueous solutions): highly soluble
